≈ marks a conversion by molar mass, not a printed value. Calls of active or inactive are those of the source. No cut-off for these calls is given here.
Key:
Format in all cases: functional
HL-60(TB) = assay: Growth inhibition of human HL-60(TB) cells at 10^-5 M incubated for 48 hrs by sulforhodamine B assay relative to control
K562 = assay: Growth inhibition of human K562 cells at 10^-5 M incubated for 48 hrs by sulforhodamine B assay relative to control
MOLT-4 = assay: Growth inhibition of human MOLT4 cells at 10^-5 M incubated for 48 hrs by sulforhodamine B assay relative to control
SR = assay: Growth inhibition of human SR cells at 10^-5 M incubated for 48 hrs by sulforhodamine B assay relative to control
A549 = assay: Growth inhibition of human A549/ATCC cells at 10^-5 M incubated for 48 hrs by sulforhodamine B assay relative to control
NCI-H226 = assay: Growth inhibition of human NCI-H226 cells at 10^-5 M incubated for 48 hrs by sulforhodamine B assay relative to control
NCI-H23 = assay: Growth inhibition of human NCI-H23 cells at 10^-5 M incubated for 48 hrs by sulforhodamine B assay relative to control
NCI-H460 = assay: Growth inhibition of human NCI-H460 cells at 10^-5 M incubated for 48 hrs by sulforhodamine B assay relative to control
NCI-H522 = assay: Growth inhibition of human NCI-H522 cells at 10^-5 M incubated for 48 hrs by sulforhodamine B assay relative to control
COLO 205 = assay: Growth inhibition of human COLO205 cells at 10^-5 M incubated for 48 hrs by sulforhodamine B assay relative to control
HCC 2998 = assay: Growth inhibition of human HCC2998 cells at 10^-5 M incubated for 48 hrs by sulforhodamine B assay relative to control
HCT-116 = assay: Growth inhibition of human HCT116 cells at 10^-5 M incubated for 48 hrs by sulforhodamine B assay relative to control
HCT-15 = assay: Growth inhibition of human HCT15 cells at 10^-5 M incubated for 48 hrs by sulforhodamine B assay relative to control
HT-29 = assay: Growth inhibition of human HT-29 cells at 10^-5 M incubated for 48 hrs by sulforhodamine B assay relative to control
SW-620 = assay: Growth inhibition of human SW620 cells at 10^-5 M incubated for 48 hrs by sulforhodamine B assay relative to control
SF-268 = assay: Growth inhibition of human SF268 cells at 10^-5 M incubated for 48 hrs by sulforhodamine B assay relative to control
SNB-19 = assay: Growth inhibition of human SNB19 cells at 10^-5 M incubated for 48 hrs by sulforhodamine B assay relative to control
U-251 = assay: Growth inhibition of human U251 cells at 10^-5 M incubated for 48 hrs by sulforhodamine B assay relative to control
Malme-3M = assay: Growth inhibition of human MALME-3M cells at 10^-5 M incubated for 48 hrs by sulforhodamine B assay relative to control
M14 = assay: Growth inhibition of human M14 cells at 10^-5 M incubated for 48 hrs by sulforhodamine B assay relative to control
MDA-MB-435 = assay: Growth inhibition of human MDA-MB-435 cells at 10^-5 M incubated for 48 hrs by sulforhodamine B assay relative to control
SK-MEL-2 = assay: Growth inhibition of human SK-MEL-2 cells at 10^-5 M incubated for 48 hrs by sulforhodamine B assay relative to control
SK-MEL-28 = assay: Growth inhibition of human SK-MEL-28 cells at 10^-5 M incubated for 48 hrs by sulforhodamine B assay relative to control
SK-MEL-5 = assay: Growth inhibition of human SK-MEL-5 cells at 10^-5 M incubated for 48 hrs by sulforhodamine B assay relative to control
UACC-257 = assay: Growth inhibition of human UACC257 cells at 10^-5 M incubated for 48 hrs by sulforhodamine B assay relative to control
UACC-62 = assay: Growth inhibition of human UACC62 cells at 10^-5 M incubated for 48 hrs by sulforhodamine B assay relative to control
IGROV-1 = assay: Growth inhibition of human IGROV1 cells at 10^-5 M incubated for 48 hrs by sulforhodamine B assay relative to control
OVCAR-3 = assay: Growth inhibition of human OVCAR3 cells at 10^-5 M incubated for 48 hrs by sulforhodamine B assay relative to control
OVCAR-5 = assay: Growth inhibition of human OVCAR5 cells at 10^-5 M incubated for 48 hrs by sulforhodamine B assay relative to control
OVCAR-8 = assay: Growth inhibition of human OVCAR8 cells at 10^-5 M incubated for 48 hrs by sulforhodamine B assay relative to control
NCI/ADR-RES = assay: Growth inhibition of human NCI-ADR-RES cells at 10^-5 M incubated for 48 hrs by sulforhodamine B assay relative to control
SK-OV-3 = assay: Growth inhibition of human SKOV3 cells at 10^-5 M incubated for 48 hrs by sulforhodamine B assay relative to control
CAKI-1 = assay: Growth inhibition of human Caki1 cells at 10^-5 M incubated for 48 hrs by sulforhodamine B assay relative to control
RXF 393 = assay: Growth inhibition of human RXF393 cells at 10^-5 M incubated for 48 hrs by sulforhodamine B assay relative to control
SN12C = assay: Growth inhibition of human SN12C cells at 10^-5 M incubated for 48 hrs by sulforhodamine B assay relative to control
UO-31 = assay: Growth inhibition of human UO31 cells at 10^-5 M incubated for 48 hrs by sulforhodamine B assay relative to control
DU-145 = assay: Growth inhibition of human DU145 cells at 10^-5 M incubated for 48 hrs by sulforhodamine B assay relative to control
MCF7 = assay: Growth inhibition of human MCF7 cells at 10^-5 M incubated for 48 hrs by sulforhodamine B assay relative to control
BT-549 = assay: Growth inhibition of human BT549 cells at 10^-5 M incubated for 48 hrs by sulforhodamine B assay relative to control
T47D = assay: Growth inhibition of human T47D cells at 10^-5 M incubated for 48 hrs by sulforhodamine B assay relative to control
MDA-MB-468 = assay: Growth inhibition of human MDA-MB-468 cells at 10^-5 M incubated for 48 hrs by sulforhodamine B assay relative to control
Candida albicans [1] = assay: Antifungal activity against Candida albicans at 100 ug/ml by disc diffusion method; settings: read-out: IZ
Candida albicans [2] = assay: Antifungal activity against Candida albicans after 24 hrs by serial dilution method
Aspergillus fumigatus = assay: Antifungal activity against Aspergillus fumigatus after 24 hrs by serial dilution method

Fc1ccc2nc(Cl)c(Cn3nnc(Cc4ccccc4)n3)cc2c1
growth inhibition (GI) (HL-60(TB)): Active
growth inhibition (GI) (K562): Active
growth inhibition (GI) (MOLT-4): Active
growth inhibition (GI) (SR): Active
growth inhibition (GI) (A549): Active
growth inhibition (GI) (NCI-H226): Active
growth inhibition (GI) (NCI-H23): Active
growth inhibition (GI) (NCI-H460): Active
growth inhibition (GI) (NCI-H522): Active
growth inhibition (GI) (COLO 205): Active
growth inhibition (GI) (HCC 2998): Active
growth inhibition (GI) (HCT-116): Active
growth inhibition (GI) (HCT-15): Active
growth inhibition (GI) (HT-29): Active
growth inhibition (GI) (SW-620): Active
growth inhibition (GI) (SF-268): Active
growth inhibition (GI) (SNB-19): Active
growth inhibition (GI) (U-251): Active
growth inhibition (GI) (Malme-3M): Active
growth inhibition (GI) (M14): Active
growth inhibition (GI) (MDA-MB-435): Active
growth inhibition (GI) (SK-MEL-2): Active
growth inhibition (GI) (SK-MEL-28): Active
growth inhibition (GI) (SK-MEL-5): Active
growth inhibition (GI) (UACC-257): Active
growth inhibition (GI) (UACC-62): Active
growth inhibition (GI) (IGROV-1): Active
growth inhibition (GI) (OVCAR-3): Active
growth inhibition (GI) (OVCAR-5): Active
growth inhibition (GI) (OVCAR-8): Active
growth inhibition (GI) (NCI/ADR-RES): Active
growth inhibition (GI) (SK-OV-3): Active
growth inhibition (GI) (CAKI-1): Active
growth inhibition (GI) (RXF 393): Active
growth inhibition (GI) (SN12C): Active
growth inhibition (GI) (UO-31): Active
growth inhibition (GI) (DU-145): Active
growth inhibition (GI) (MCF7): Active
growth inhibition (GI) (BT-549): Active
growth inhibition (GI) (T47D): Active
growth inhibition (GI) (MDA-MB-468): Active
zone of inhibition at 100 µg/mL (Candida albicans [1]): 12 mm
MIC (Candida albicans [2]): 25 µg/mL (≈ 70.7 µM)
MIC (Aspergillus fumigatus): 25 µg/mL (≈ 70.7 µM)

Cc1ccc2nc(Cl)c(Cn3nnnc3Cc3ccccc3)cc2c1
growth inhibition (GI) (HL-60(TB)): Active
growth inhibition (GI) (K562): Active
growth inhibition (GI) (MOLT-4): Active
growth inhibition (GI) (SR): Active
growth inhibition (GI) (A549): Active
growth inhibition (GI) (NCI-H226): Active
growth inhibition (GI) (NCI-H23): Active
growth inhibition (GI) (NCI-H460): Active
growth inhibition (GI) (NCI-H522): Active
growth inhibition (GI) (COLO 205): Active
growth inhibition (GI) (HCC 2998): Active
growth inhibition (GI) (HCT-116): Active
growth inhibition (GI) (HCT-15): Active
growth inhibition (GI) (HT-29): Active
growth inhibition (GI) (SW-620): Active
growth inhibition (GI) (SF-268): Active
growth inhibition (GI) (SNB-19): Active
growth inhibition (GI) (U-251): Active
growth inhibition (GI) (Malme-3M): Active
growth inhibition (GI) (M14): Active
growth inhibition (GI) (MDA-MB-435): Active
growth inhibition (GI) (SK-MEL-2): Active
growth inhibition (GI) (SK-MEL-28): Active
growth inhibition (GI) (SK-MEL-5): Active
growth inhibition (GI) (UACC-257): Active
growth inhibition (GI) (UACC-62): Active
growth inhibition (GI) (IGROV-1): Active
growth inhibition (GI) (OVCAR-3): Active
growth inhibition (GI) (OVCAR-5): Active
growth inhibition (GI) (OVCAR-8): Active
growth inhibition (GI) (NCI/ADR-RES): Active
growth inhibition (GI) (SK-OV-3): Active
growth inhibition (GI) (CAKI-1): Active
growth inhibition (GI) (RXF 393): Active
growth inhibition (GI) (SN12C): Active
growth inhibition (GI) (UO-31): Active
growth inhibition (GI) (DU-145): Active
growth inhibition (GI) (MCF7): Active
growth inhibition (GI) (BT-549): Active
growth inhibition (GI) (T47D): Active
growth inhibition (GI) (MDA-MB-468): Active
zone of inhibition at 100 µg/mL (Candida albicans [1]): 10 mm
MIC (Candida albicans [2]): 25 µg/mL (≈ 71.5 µM)
MIC (Aspergillus fumigatus): 25 µg/mL (≈ 71.5 µM)

Cc1ccc2nc(Cl)c(Cn3nnnc3CSc3ccccc3)cc2c1
growth inhibition (GI) (HL-60(TB)): Active
growth inhibition (GI) (K562): Active
growth inhibition (GI) (MOLT-4): Active
growth inhibition (GI) (SR): Active
growth inhibition (GI) (A549): Active
growth inhibition (GI) (NCI-H226): Active
growth inhibition (GI) (NCI-H23): Active
growth inhibition (GI) (NCI-H460): Active
growth inhibition (GI) (NCI-H522): Active
growth inhibition (GI) (COLO 205): Active
growth inhibition (GI) (HCC 2998): Active
growth inhibition (GI) (HCT-116): Active
growth inhibition (GI) (HCT-15): Active
growth inhibition (GI) (HT-29): Active
growth inhibition (GI) (SW-620): Active
growth inhibition (GI) (SF-268): Active
growth inhibition (GI) (SNB-19): Active
growth inhibition (GI) (U-251): Active
growth inhibition (GI) (Malme-3M): Active
growth inhibition (GI) (M14): Active
growth inhibition (GI) (MDA-MB-435): Active
growth inhibition (GI) (SK-MEL-2): Active
growth inhibition (GI) (SK-MEL-28): Active
growth inhibition (GI) (SK-MEL-5): Active
growth inhibition (GI) (UACC-257): Active
growth inhibition (GI) (UACC-62): Active
growth inhibition (GI) (IGROV-1): Active
growth inhibition (GI) (OVCAR-3): Active
growth inhibition (GI) (OVCAR-5): Active
growth inhibition (GI) (OVCAR-8): Active
growth inhibition (GI) (NCI/ADR-RES): Active
growth inhibition (GI) (SK-OV-3): Active
growth inhibition (GI) (CAKI-1): Active
growth inhibition (GI) (RXF 393): Active
growth inhibition (GI) (SN12C): Active
growth inhibition (GI) (UO-31): Active
growth inhibition (GI) (DU-145): Active
growth inhibition (GI) (MCF7): Active
growth inhibition (GI) (BT-549): Active
growth inhibition (GI) (T47D): Active
growth inhibition (GI) (MDA-MB-468): Active
zone of inhibition at 100 µg/mL (Candida albicans [1]): 12 mm
MIC (Candida albicans [2]): 10 µg/mL (≈ 26.2 µM)
MIC (Aspergillus fumigatus): 25 µg/mL (≈ 65.5 µM)

— ChEMBL document CHEMBL4004849, “Tetrazolylmethyl quinolines: Design, docking studies, synthesis, anticancer and antifungal analyses” (2017)
